Measured values as given in patent US20250049748A1, “ANALOGS OF 4-BROMO-2,5-DIMETHOXYPHENETHYLAMINE” (Terran Biosciences Inc., priority 2021, published 2025).

Assay: Pharmacokinetic study in rats: plasma 2C-B after IV/PO 2C-B or PO 2C-B prodrugs
[1] = oral dosing of 2C-B prodrug, rat, time 0.500 h, individual animal
[2] = oral dosing of 2C-B prodrug, rat, time 0.500 h, mean
[3] = oral dosing of 2C-B prodrug, rat, time 1.00 h, individual animal
[4] = oral dosing of 2C-B prodrug, rat, time 1.00 h, mean
[5] = oral dosing of 2C-B prodrug, rat, time 2.00 h, individual animal
[6] = oral dosing of 2C-B prodrug, rat, time 2.00 h, mean
[7] = oral dosing of 2C-B prodrug, rat, time 4.00 h, individual animal
[8] = oral dosing of 2C-B prodrug, rat, time 4.00 h, mean
[9] = oral dosing of 2C-B prodrug, rat, time 7.00 h, individual animal
[10] = oral dosing of 2C-B prodrug, rat, time 7.00 h, mean
[11] = oral dosing of 2C-B prodrug, rat, time 24.0 h, individual animal
[12] = oral dosing of 2C-B prodrug, rat, time 24.0 h, mean
[13] = prodrug oral 10 mg/kg, male SD rats, time 0.500 h, individual animals
[14] = prodrug oral 10 mg/kg, male SD rats, time 0.500 h, mean
[15] = prodrug oral 10 mg/kg, male SD rats, time 1.00 h, individual animals
[16] = prodrug oral 10 mg/kg, male SD rats, time 1.00 h, mean
[17] = prodrug oral 10 mg/kg, male SD rats, time 2.00 h, individual animals
[18] = prodrug oral 10 mg/kg, male SD rats, time 2.00 h, mean
[19] = prodrug oral 10 mg/kg, male SD rats, time 4.00 h, individual animals
[20] = prodrug oral 10 mg/kg, male SD rats, time 4.00 h, mean
[21] = prodrug oral 10 mg/kg, male SD rats, time 7.00 h, individual animals
[22] = prodrug oral 10 mg/kg, male SD rats, time 7.00 h, mean
[23] = prodrug oral 10 mg/kg, male SD rats, time 24.0 h, individual animals
[24] = prodrug oral 10 mg/kg, male SD rats, time 24.0 h, mean

Structure (SMILES)	Plasma Concentrations of metabolite 2C-B Following Oral Dosing [1]	Plasma Concentrations of metabolite 2C-B Following Oral Dosing [2]	Plasma Concentrations of metabolite 2C-B Following Oral Dosing [3]	Plasma Concentrations of metabolite 2C-B Following Oral Dosing [4]	Plasma Concentrations of metabolite 2C-B Following Oral Dosing [5]	Plasma Concentrations of metabolite 2C-B Following Oral Dosing [6]	Plasma Concentrations of metabolite 2C-B Following Oral Dosing [7]	Plasma Concentrations of metabolite 2C-B Following Oral Dosing [8]	Plasma Concentrations of metabolite 2C-B Following Oral Dosing [13]	Plasma Concentrations of metabolite 2C-B Following Oral Dosing [14]	Plasma Concentrations of metabolite 2C-B Following Oral Dosing [15]	Plasma Concentrations of metabolite 2C-B Following Oral Dosing [16]	Plasma Concentrations of metabolite 2C-B Following Oral Dosing [17]	Plasma Concentrations of metabolite 2C-B Following Oral Dosing [18]	Plasma Concentrations of metabolite 2C-B Following Oral Dosing [19]	Plasma Concentrations of metabolite 2C-B Following Oral Dosing [20]	Plasma Concentrations of metabolite 2C-B Following Oral Dosing [21]	Plasma Concentrations of metabolite 2C-B Following Oral Dosing [22]	Plasma Concentrations of metabolite 2C-B Following Oral Dosing [23]	Plasma Concentrations of metabolite 2C-B Following Oral Dosing [24]	further results
COc1cc(CCNC(=O)C(F)(F)F)c(OC)cc1Br [Example 5, N-(4-bromo-2,5-dimethoxyphenethyl)-2,2,2-trifluoroacetamide]	BLQ (BLQ: Below Lower Limit of Quanification (0.5 ng/mL))	BLQ (BLQ: Below Lower Limit of Quanification (0.5 ng/mL))	BLQ (BLQ: Below Lower Limit of Quanification (0.5 ng/mL))	BLQ (BLQ: Below Lower Limit of Quanification (0.5 ng/mL))	BLQ (BLQ: Below Lower Limit of Quanification (0.5 ng/mL))	BLQ (BLQ: Below Lower Limit of Quanification (0.5 ng/mL))	BLQ (BLQ: Below Lower Limit of Quanification (0.5 ng/mL))	BLQ (BLQ: Below Lower Limit of Quanification (0.5 ng/mL))													Plasma Concentrations of metabolite 2C-B Following Oral Dosing [9]: BLQ (BLQ: Below Lower Limit of Quanification (0.5 ng/mL)); Plasma Concentrations of metabolite 2C-B Following Oral Dosing [10]: BLQ (BLQ: Below Lower Limit of Quanification (0.5 ng/mL)); Plasma Concentrations of metabolite 2C-B Following Oral Dosing [11]: BLQ (BLQ: Below Lower Limit of Quanification (0.5 ng/mL)); Plasma Concentrations of metabolite 2C-B Following Oral Dosing [12]: BLQ (BLQ: Below Lower Limit of Quanification (0.5 ng/mL))
COc1cc(CCN2C(=O)C(C)=C(C)C2=O)c(OC)cc1Br [Example 21-B, 1-(4-bromo-2,5-dimethoxyphenethyl)-3,4-dim ethyl-1H-pyrrole-2,5-dione]									BLQ (BLQ: Below Lower Limit of Quanification (0.5 ng/mL))	BLQ (BLQ: Below Lower Limit of Quanification (0.5 ng/mL))	BLQ (BLQ: Below Lower Limit of Quanification (0.5 ng/mL))	BLQ (BLQ: Below Lower Limit of Quanification (0.5 ng/mL))	BLQ (BLQ: Below Lower Limit of Quanification (0.5 ng/mL))	BLQ (BLQ: Below Lower Limit of Quanification (0.5 ng/mL))	BLQ (BLQ: Below Lower Limit of Quanification (0.5 ng/mL))	BLQ (BLQ: Below Lower Limit of Quanification (0.5 ng/mL))	BLQ (BLQ: Below Lower Limit of Quanification (0.5 ng/mL))	BLQ (BLQ: Below Lower Limit of Quanification (0.5 ng/mL))	BLQ (BLQ: Below Lower Limit of Quanification (0.5 ng/mL))	BLQ (BLQ: Below Lower Limit of Quanification (0.5 ng/mL))	
COc1cc(CCNC(C)=O)c(OC)cc1Br [Example 4, N-(4-bromo-2,5-dimethoxyphenethyl)acetamide]									BLQ (BLQ: Below Lower Limit of Quanification (0.5 ng/mL))	BLQ (BLQ: Below Lower Limit of Quanification (0.5 ng/mL))	BLQ (BLQ: Below Lower Limit of Quanification (0.5 ng/mL))	BLQ (BLQ: Below Lower Limit of Quanification (0.5 ng/mL))	BLQ (BLQ: Below Lower Limit of Quanification (0.5 ng/mL))	BLQ (BLQ: Below Lower Limit of Quanification (0.5 ng/mL))	BLQ (BLQ: Below Lower Limit of Quanification (0.5 ng/mL))	BLQ (BLQ: Below Lower Limit of Quanification (0.5 ng/mL))	BLQ (BLQ: Below Lower Limit of Quanification (0.5 ng/mL))	BLQ (BLQ: Below Lower Limit of Quanification (0.5 ng/mL))	BLQ (BLQ: Below Lower Limit of Quanification (0.5 ng/mL))	BLQ (BLQ: Below Lower Limit of Quanification (0.5 ng/mL))	
COc1cc(CCNC(=O)CN(C)C(=O)[C@H](Cc2ccccc2)NC(=O)OC(C)(C)C)c(OC)cc1Br [Example 10, tert-butyl (S)-(1-((2-((4-bromo-2,5-dimethoxyphenethyl)amino)-2-oxoethyl)(methyl)amino)-1-oxo-3-phenylpropan-2-yl)carbamate]	BLQ (BLQ: Below Lower Limit of Quanification (0.5 ng/mL))	BLQ (BLQ: Below Lower Limit of Quanification (0.5 ng/mL))	BLQ (BLQ: Below Lower Limit of Quanification (0.5 ng/mL))	BLQ (BLQ: Below Lower Limit of Quanification (0.5 ng/mL))	BLQ (BLQ: Below Lower Limit of Quanification (0.5 ng/mL))	BLQ (BLQ: Below Lower Limit of Quanification (0.5 ng/mL))	BLQ (BLQ: Below Lower Limit of Quanification (0.5 ng/mL))	BLQ (BLQ: Below Lower Limit of Quanification (0.5 ng/mL))													Plasma Concentrations of metabolite 2C-B Following Oral Dosing [9]: BLQ (BLQ: Below Lower Limit of Quanification (0.5 ng/mL)); Plasma Concentrations of metabolite 2C-B Following Oral Dosing [10]: BLQ (BLQ: Below Lower Limit of Quanification (0.5 ng/mL)); Plasma Concentrations of metabolite 2C-B Following Oral Dosing [11]: BLQ (BLQ: Below Lower Limit of Quanification (0.5 ng/mL)); Plasma Concentrations of metabolite 2C-B Following Oral Dosing [12]: BLQ (BLQ: Below Lower Limit of Quanification (0.5 ng/mL))
COc1cc(CCN(C(=O)OC(C)(C)C)C(=O)OC(C)(C)C)c(OC)cc1Br [Example 12, tert-butyl (4-bromo-2,5-dimethoxyphenethyl)(tert-butoxycarbonyl) carbamate]									BLQ (BLQ: Below Lower Limit of Quanification (0.5 ng/mL))	BLQ (BLQ: Below Lower Limit of Quanification (0.5 ng/mL))	BLQ (BLQ: Below Lower Limit of Quanification (0.5 ng/mL))	BLQ (BLQ: Below Lower Limit of Quanification (0.5 ng/mL))	BLQ (BLQ: Below Lower Limit of Quanification (0.5 ng/mL))	BLQ (BLQ: Below Lower Limit of Quanification (0.5 ng/mL))	BLQ (BLQ: Below Lower Limit of Quanification (0.5 ng/mL))	BLQ (BLQ: Below Lower Limit of Quanification (0.5 ng/mL))	BLQ (BLQ: Below Lower Limit of Quanification (0.5 ng/mL))	BLQ (BLQ: Below Lower Limit of Quanification (0.5 ng/mL))	BLQ (BLQ: Below Lower Limit of Quanification (0.5 ng/mL))	BLQ (BLQ: Below Lower Limit of Quanification (0.5 ng/mL))	
